Test results reported in the supplement of paper PMC8741786.
Converted amounts (≈) assume the structure as drawn.

Legend:
Assay in all cases: minimum inhibitory concentration (ETEST)
Neisseria bacilliformis = conditions: isolate id (sample isolate): Co000780_5; population: general population; antibiotic use in previous 6 months: No
Protocol: (§1)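 Oropharyngeal Neisseria isolates from MSM and employees in Belgium were identified to species by MALDI-TOF MS. MICs of azithromycin, ceftriaxone and ciprofloxacin were determined by ETEST on GC agar after 24 h at 36.5 °C and 5-7% CO2, in mg/L. Values beyond the strip range are reported as >256 (azithromycin) or <0.016 (ceftriaxone); isolates that did not grow are NA.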

Neisseria cinerea = conditions: population: general population, antibiotic use in previous 6 months: No
Protocol: as §1

Neisseria lactamica = conditions: population: general population, antibiotic use in previous 6 months: No
Protocol: as §1

Neisseria mucosa/macacae = system: Neisseria mucosa/macacae
Protocol: as §1

Neisseria oralis = conditions: population: general population, antibiotic use in previous 6 months: No
Protocol: as §1

[1] = system: Neisseria subflava/flavescens/perflava
Protocol: as §1

SMILES: O=C(O)c1cn(C2CC2)c2cc(N3CCNCC3)c(F)cc2c1=O [ciprofloxacin]
- minimum inhibitory concentration (Neisseria bacilliformis): 0.125 mg/L (≈ 0.377 µM)
- minimum inhibitory concentration (Neisseria cinerea; isolate id (sample isolate): Co000769_3): 0.006 mg/L (≈ 0.0181 µM)
- minimum inhibitory concentration (Neisseria cinerea; isolate id (sample isolate): Co000776_4): 0.032 mg/L (≈ 0.0966 µM)
- minimum inhibitory concentration (Neisseria cinerea; isolate id (sample isolate): Co000776_5): 0.032 mg/L (≈ 0.0966 µM)
- minimum inhibitory concentration (Neisseria cinerea; isolate id (sample isolate): Co000782_1): 0.012 mg/L (≈ 0.0362 µM)
- minimum inhibitory concentration (Neisseria lactamica; isolate id (sample isolate): Co000761_1): 0.19 mg/L (≈ 0.573 µM)
- minimum inhibitory concentration (Neisseria lactamica; isolate id (sample isolate): Co000771_1): 0.064 mg/L (≈ 0.193 µM)
- minimum inhibitory concentration (Neisseria mucosa/macacae; isolate id (sample isolate): 19041762_2, population: MSM, antibiotic use in previous 6 months: Yes): 0.016 mg/L (≈ 0.0483 µM)
- minimum inhibitory concentration (Neisseria mucosa/macacae; isolate id (sample isolate): 19051904_1, population: MSM, antibiotic use in previous 6 months: Yes): 0.25 mg/L (≈ 0.754 µM)
- minimum inhibitory concentration (Neisseria mucosa/macacae; isolate id (sample isolate): 19052394_2, population: MSM, antibiotic use in previous 6 months: Yes): 0.012 mg/L (≈ 0.0362 µM)
- minimum inhibitory concentration (Neisseria mucosa/macacae; isolate id (sample isolate): 19062968_1, population: MSM, antibiotic use in previous 6 months: Yes): 6 mg/L (≈ 18.1 µM)
- minimum inhibitory concentration (Neisseria mucosa/macacae; isolate id (sample isolate): 19081774_2, population: MSM, antibiotic use in previous 6 months: No): 0.016 mg/L (≈ 0.0483 µM)
- minimum inhibitory concentration (Neisseria mucosa/macacae; isolate id (sample isolate): 19111422_4, population: MSM, antibiotic use in previous 6 months: No): 0.016 mg/L (≈ 0.0483 µM)
- minimum inhibitory concentration (Neisseria mucosa/macacae; isolate id (sample isolate): 19111422_7, population: MSM, antibiotic use in previous 6 months: No): 0.016 mg/L (≈ 0.0483 µM)
- minimum inhibitory concentration (Neisseria mucosa/macacae; isolate id (sample isolate): Co000770_5, population: general population, antibiotic use in previous 6 months: No): 0.023 mg/L (≈ 0.0694 µM)
- minimum inhibitory concentration (Neisseria mucosa/macacae; isolate id (sample isolate): Co000771_4, population: general population, antibiotic use in previous 6 months: No): 0.016 mg/L (≈ 0.0483 µM)
- minimum inhibitory concentration (Neisseria mucosa/macacae; isolate id (sample isolate): Co000772_3, population: general population, antibiotic use in previous 6 months: No): 0.006 mg/L (≈ 0.0181 µM)
- minimum inhibitory concentration (Neisseria mucosa/macacae; isolate id (sample isolate): Co000773_3, population: general population, antibiotic use in previous 6 months: No): 0.006 mg/L (≈ 0.0181 µM)
- minimum inhibitory concentration (Neisseria mucosa/macacae; isolate id (sample isolate): Co000779_1, population: general population, antibiotic use in previous 6 months: No): 0.032 mg/L (≈ 0.0966 µM)
- minimum inhibitory concentration (Neisseria mucosa/macacae; isolate id (sample isolate): Co000783_3, population: general population, antibiotic use in previous 6 months: No): 0.012 mg/L (≈ 0.0362 µM)
- minimum inhibitory concentration (Neisseria mucosa/macacae; isolate id (sample isolate): Co000783_6, population: general population, antibiotic use in previous 6 months: No): 0.023 mg/L (≈ 0.0694 µM)
- minimum inhibitory concentration (Neisseria mucosa/macacae; isolate id (sample isolate): Co000787_3, population: general population, antibiotic use in previous 6 months: No): 0.064 mg/L (≈ 0.193 µM)
- minimum inhibitory concentration (Neisseria mucosa/macacae; isolate id (sample isolate): Co000788_1, population: general population, antibiotic use in previous 6 months: No): 0.012 mg/L (≈ 0.0362 µM)
- minimum inhibitory concentration (Neisseria mucosa/macacae; isolate id (sample isolate): Co000788_4, population: general population, antibiotic use in previous 6 months: No): 0.012 mg/L (≈ 0.0362 µM)
- minimum inhibitory concentration (Neisseria oralis; isolate id (sample isolate): Co000761_7): 0.016 mg/L (≈ 0.0483 µM)
- minimum inhibitory concentration (Neisseria oralis; isolate id (sample isolate): Co000763_1): 0.012 mg/L (≈ 0.0362 µM)
- minimum inhibitory concentration (Neisseria oralis; isolate id (sample isolate): Co000766_2): 0.023 mg/L (≈ 0.0694 µM)
- minimum inhibitory concentration (Neisseria oralis; isolate id (sample isolate): Co000770_1): 0.016 mg/L (≈ 0.0483 µM)
- minimum inhibitory concentration (Neisseria oralis; isolate id (sample isolate): Co000774_1): 0.023 mg/L (≈ 0.0694 µM)
- minimum inhibitory concentration (Neisseria oralis; isolate id (sample isolate): Co000776_1): 0.016 mg/L (≈ 0.0483 µM)
- minimum inhibitory concentration (Neisseria oralis; isolate id (sample isolate): Co000776_1.1): 0.012 mg/L (≈ 0.0362 µM)
- minimum inhibitory concentration (Neisseria oralis; isolate id (sample isolate): Co000779_2): 0.012 mg/L (≈ 0.0362 µM)
- minimum inhibitory concentration (Neisseria oralis; isolate id (sample isolate): Co000790_5): 0.006 mg/L (≈ 0.0181 µM)
- minimum inhibitory concentration ([1]; isolate id (sample isolate): 19041762_1, population: MSM, antibiotic use in previous 6 months: Yes): 1.5 mg/L (≈ 4.53 µM)
- minimum inhibitory concentration ([1]; isolate id (sample isolate): 19041762_1.1, population: MSM, antibiotic use in previous 6 months: Yes): 3 mg/L (≈ 9.05 µM)
- minimum inhibitory concentration ([1]; isolate id (sample isolate): 19041780_1, population: MSM, antibiotic use in previous 6 months: Yes): 0.25 mg/L (≈ 0.754 µM)
- minimum inhibitory concentration ([1]; isolate id (sample isolate): 19042150_1, population: MSM, antibiotic use in previous 6 months: Yes): 0.25 mg/L (≈ 0.754 µM)
- minimum inhibitory concentration ([1]; isolate id (sample isolate): 19042150_3, population: MSM, antibiotic use in previous 6 months: Yes): 0.032 mg/L (≈ 0.0966 µM)
- minimum inhibitory concentration ([1]; isolate id (sample isolate): 19042756_1, population: MSM, antibiotic use in previous 6 months: Yes): 1 mg/L (≈ 3.02 µM)
- minimum inhibitory concentration ([1]; isolate id (sample isolate): 19042756_2, population: MSM, antibiotic use in previous 6 months: Yes): 0.75 mg/L (≈ 2.26 µM)
- minimum inhibitory concentration ([1]; isolate id (sample isolate): 19043201_1.1, population: MSM, antibiotic use in previous 6 months: No): 0.25 mg/L (≈ 0.754 µM)
- minimum inhibitory concentration ([1]; isolate id (sample isolate): 19043201_2.1, population: MSM, antibiotic use in previous 6 months: No): 0.38 mg/L (≈ 1.15 µM)
- minimum inhibitory concentration ([1]; isolate id (sample isolate): 19043201_3, population: MSM, antibiotic use in previous 6 months: No): 0.25 mg/L (≈ 0.754 µM)
- minimum inhibitory concentration ([1]; isolate id (sample isolate): 19043274_3, population: MSM, antibiotic use in previous 6 months: Yes): 0.25 mg/L (≈ 0.754 µM)
- minimum inhibitory concentration ([1]; isolate id (sample isolate): 19050474_1, population: MSM, antibiotic use in previous 6 months: No): 0.25 mg/L (≈ 0.754 µM)
- minimum inhibitory concentration ([1]; isolate id (sample isolate): 19050514_1, population: MSM, antibiotic use in previous 6 months: Yes): 0.5 mg/L (≈ 1.51 µM)
- minimum inhibitory concentration ([1]; isolate id (sample isolate): 19050949_1, population: MSM, antibiotic use in previous 6 months: No): 0.016 mg/L (≈ 0.0483 µM)
- minimum inhibitory concentration ([1]; isolate id (sample isolate): 19050949_2, population: MSM, antibiotic use in previous 6 months: No): 0.38 mg/L (≈ 1.15 µM)
- minimum inhibitory concentration ([1]; isolate id (sample isolate): 19050949_2.1, population: MSM, antibiotic use in previous 6 months: No): 0.38 mg/L (≈ 1.15 µM)
- minimum inhibitory concentration ([1]; isolate id (sample isolate): 19051904_2, population: MSM, antibiotic use in previous 6 months: Yes): 0.38 mg/L (≈ 1.15 µM)
- minimum inhibitory concentration ([1]; isolate id (sample isolate): 19051904_3, population: MSM, antibiotic use in previous 6 months: Yes): 0.38 mg/L (≈ 1.15 µM)
- minimum inhibitory concentration ([1]; isolate id (sample isolate): 19052394_1, population: MSM, antibiotic use in previous 6 months: Yes): 0.19 mg/L (≈ 0.573 µM)
- minimum inhibitory concentration ([1]; isolate id (sample isolate): 19052394_1.1, population: MSM, antibiotic use in previous 6 months: Yes): 0.19 mg/L (≈ 0.573 µM)
- minimum inhibitory concentration ([1]; isolate id (sample isolate): 19060089_1, population: MSM, antibiotic use in previous 6 months: Yes): 0.38 mg/L (≈ 1.15 µM)
- minimum inhibitory concentration ([1]; isolate id (sample isolate): 19062994_1, population: MSM, antibiotic use in previous 6 months: Yes): 0.016 mg/L (≈ 0.0483 µM)
- minimum inhibitory concentration ([1]; isolate id (sample isolate): Co000761_2, population: general population, antibiotic use in previous 6 months: No): 0.012 mg/L (≈ 0.0362 µM)
- minimum inhibitory concentration ([1]; isolate id (sample isolate): Co000761_3, population: general population, antibiotic use in previous 6 months: No): 0.75 mg/L (≈ 2.26 µM)
- minimum inhibitory concentration ([1]; isolate id (sample isolate): Co000761_5, population: general population, antibiotic use in previous 6 months: No): 0.38 mg/L (≈ 1.15 µM)
- minimum inhibitory concentration ([1]; isolate id (sample isolate): Co000761_6, population: general population, antibiotic use in previous 6 months: No): 0.008 mg/L (≈ 0.0241 µM)
- minimum inhibitory concentration ([1]; isolate id (sample isolate): Co000762_3, population: general population, antibiotic use in previous 6 months: No): 0.016 mg/L (≈ 0.0483 µM)
- minimum inhibitory concentration ([1]; isolate id (sample isolate): Co000762_4, population: general population, antibiotic use in previous 6 months: No): 0.016 mg/L (≈ 0.0483 µM)
- minimum inhibitory concentration ([1]; isolate id (sample isolate): Co000763_2, population: general population, antibiotic use in previous 6 months: No): 0.008 mg/L (≈ 0.0241 µM)
- minimum inhibitory concentration ([1]; isolate id (sample isolate): Co000764_1, population: general population, antibiotic use in previous 6 months: No): 0.032 mg/L (≈ 0.0966 µM)
- minimum inhibitory concentration ([1]; isolate id (sample isolate): Co000764_2, population: general population, antibiotic use in previous 6 months: No): 0.047 mg/L (≈ 0.142 µM)
- minimum inhibitory concentration ([1]; isolate id (sample isolate): Co000765_2, population: general population, antibiotic use in previous 6 months: No): 0.023 mg/L (≈ 0.0694 µM)
- minimum inhibitory concentration ([1]; isolate id (sample isolate): Co000765_3, population: general population, antibiotic use in previous 6 months: No): 0.016 mg/L (≈ 0.0483 µM)
